Read-outs that look alike come from different tables or passages of the source.
What was measured:
[1] = test system: cancer cell lines classified IM, MSL, M; assay: PRISM screen compound sensitivity correlated with IM, MSL and M subtype of cell lines (101 gene signature); format: cell-based
[2] = test system: cancer cell lines, DetermaIO classes; assay: Association of PRISM compound sensitivity with DetermaIO (DTIO) cell line classes; format: cell-based
[3] = correlation of PRISM compound sensitivity with IM subtype correlation, test cell set
[4] = correlation of PRISM compound sensitivity with M subtype correlation, test cell set
[5] = correlation of PRISM compound sensitivity with MSL subtype correlation, test cell set
[6] = subtype (IM, MSL or M) with which PRISM compound sensitivity is negatively correlated, training cell set, 101 gene signature
[7] = correlation of PRISM compound sensitivity with DTIO, test cell set
[8] = correlation of PRISM compound sensitivity with DTIO, training cell set
[9] = correlation of PRISM compound sensitivity with IM subtype correlation, test cell set (188 cell lines)
[10] = correlation of PRISM compound sensitivity with M subtype correlation, test cell set (188 cell lines)
[11] = correlation of PRISM compound sensitivity with MSL subtype correlation, test cell set (188 cell lines)
[12] = subtype (IM, MSL or M) assigned to the compound by negative correlation of PRISM sensitivity with subtype, training cell set (371 cell lines), 101 gene signature
[13] = correlation of PRISM compound sensitivity with DTIO (DetermaIO), test cell set (188 cell lines)
[14] = correlation of PRISM compound sensitivity with DTIO (DetermaIO), training cell set (371 cell lines)
[15] = subtype (IM, MSL or M) with which compound sensitivity is negatively correlated, training cell set (371 cell lines), 101 gene signature

Molecule | IM Corr test [1, 3] | M Corr test [1, 4] | MSL Corr test [1, 5] | DTIO Corr test [2, 7] | DTIO Corr train [2, 8] | IM Corr test [1, 9] | M Corr test [1, 10] | MSL Corr test [1, 11] | DTIO Corr test [2, 13] | DTIO Corr train [2, 14] | other results
CC[C@H](C)[C@@H]1NC(=O)[C@H](Cc2ccc(O)cc2)NC(=O)[C@@H](N)CSSC[C@@H](C(=O)N2CCC[C@H]2C(=O)N[C@@H](CC(C)C)C(=O)NCC(N)=O)NC(=O)[C@H](CC(N)=O)NC(=O)[C@H](CCC(N)=O)NC1=O [oxytocin] | −0.06688 | 0.01789 | −0.03975 | −0.07667 | 0.04167 | – | – | – | – | – | TNBCType train [1, 6]: MSL
C/C=C1/[C@H](O[C@@H]2O[C@H](CO)[C@@H](O)[C@H](O)[C@H]2O)OC=C(C(=O)OC)[C@H]1CC(=O)OCCc1ccc(O)c(O)c1 [A00842753] | – | – | – | – | – | – | – | – | – | – | TNBCType test ([1]; classification of association of compound sensitivity with IM, MSL and M cell line classes, test data set): MSL; TNBCType train ([1]; classification of association of compound sensitivity with IM, MSL and M cell line classes, training data set): MSL; DTIO Corr test ([2]; association of compound sensitivity with DetermaIO classes, test data set): 0.02172; DTIO Corr train ([2]; association of compound sensitivity with DetermaIO classes, training data set): −0.00213
Cc1ccc(S(=O)(=O)/C=C/C#N)cc1 [BAY-11-7082] | – | – | – | 0.04014 | −0.00647 | 0.07793 | −0.1474 | 0.0317 | – | – | –
CCS(=O)(=O)N(C)[C@H]1c2cc(C#N)ccc2OC(C)(C)[C@@H]1O [chromanol-293B-(−)-[3R,4S]] | −0.09685 | 0.08774 | 0.1021 | −0.09957 | −0.08029 | – | – | – | – | – | –
CC[C@H](C)[C@@H]([C@@H](CC(=O)N1CCC[C@H]1[C@H](OC)[C@@H](C)C(=O)N[C@@H](Cc1ccccc1)c1nccs1)OC)N(C)C(=O)[C@@H](NC(=O)[C@H](C(C)C)N(C)C)C(C)C [dolastatin-10] | – | – | – | – | – | −0.05477 | 0.003299 | −0.00011 | −0.08086 | −0.07579 | TNBCType train [1, 12]: MSL
O=C(O)CCC/C=C\C[C@@H]1CO[C@H](C(F)(F)F)O[C@@H]1c1ccccc1O [ICI-185,282] | −0.05673 | 0.07129 | 0.1418 | −0.02205 | −0.09302 | – | – | – | – | – | –
C=C1C[C@@H]2[C@H](CC[C@]3(C)C(=O)CC[C@@H]23)[C@@]2(C)C=CC(=O)C=C12 [exemestane] | – | – | – | – | – | – | – | – | – | – | IM Corr test [1]: 0.07921; M Corr test [1]: −0.1056; MSL Corr test [1]: −0.04525; DTIO Corr test [2]: 0.03291; DTIO Corr train [2]: 0.03081
Cc1nc(-c2cccnc2)sc1C(=O)Nc1ccccc1-c1cn2c(CN3CCOCC3)csc2n1 [SRT2104] | −0.05657 | 0.06965 | −0.08685 | −0.05596 | −0.07665 | – | – | – | – | – | TNBCType train [1, 6]: MSL
O=c1[nH]ccc2cc(OC3CCNCC3)ccc12 [SAR407899] | – | – | – | – | – | 0.003595 | −0.1052 | −0.2277 | −0.00558 | 0.07673 | TNBCType train [1, 12]: MSL
PF-477736 | – | – | – | −0.03209 | −0.01779 | 0.05795 | −0.1644 | −0.1066 | – | – | –
CN(C)C(=O)CCSC(SCCC(=O)O)c1cccc(/C=C/c2ccc3ccc(Cl)cc3n2)c1 (stereo not drawn) [MK-571] | – | – | – | −0.00581 | 0.02432 | −0.02535 | −0.02967 | −0.00401 | – | – | TNBCType train [1, 15]: MSL
CC(C)C(=O)c1ccc(O)c(O)c1 [U-0521] | – | – | – | −0.01537 | −0.1115 | −0.0012 | 0.02749 | 0.06256 | – | – | –
COc1cc2ncnc(Nc3cccc(Cl)c3)c2cc1OC [tyrphostin-AG-1478] | – | – | – | – | – | −0.09525 | 0.2259 | 0.3434 | 0.02894 | −0.0761 | –
CN(CCOP(=O)(O)O)C(=N)N [creatinol-phosphate] | −0.00785 | 0.001052 | −0.06276 | 0.02757 | −0.08518 | – | – | – | – | – | –
COC(=O)[C@H](NC(=O)c1cc(-c2ccccc2)nc2ccccc12)c1ccccc1 [SB-218795] | – | – | – | – | – | −0.01019 | 0.01779 | −0.1047 | −0.06114 | −0.1377 | –
Cc1oc2nc3c(c(NC(=O)CN4CCCC4=O)c2c1C)CCCC3 [BCI-540] | 0.07689 | −0.08152 | −0.1815 | 0.01234 | −0.02488 | – | – | – | – | – | TNBCType train [1, 6]: MSL
CCC(O)(c1ccccc1)c1cccc(C(F)(F)F)c1 (stereo not drawn) [flumecinol] | – | – | – | 0.03786 | 0.02706 | 0.06404 | −0.06491 | −0.09398 | – | – | TNBCType train [1, 15]: MSL
Cc1cc(OCCCS(C)(=O)=O)cc(C)c1-c1cccc(COc2ccc3c(c2)OC[C@H]3CC(=O)O)c1 [TAK-875] | – | – | – | – | – | 0.00946 | −0.00346 | −0.00217 | −0.03291 | 0.03182 | TNBCType train [1, 12]: MSL
O=C(O)CNC(=O)c1c(O)c2ccccc2n(Cc2ccccc2)c1=O [IOX2] | – | – | – | – | – | −0.04037 | 0.09066 | 0.01906 | – | – | DTIO Corr test ([2]; correlation of PRISM compound sensitivity with DTIO, test cell set (188 cell lines)): −0.06501; DTIO Corr train ([2]; correlation of PRISM compound sensitivity with DTIO, training cell set (371 cell lines)): −0.0409
CN(C[C@@H]1COCCO1)S(=O)(=O)Nc1ccc2ccc3ncc(-c4cnn(C)c4)cc3c(=O)c2c1 [MK-2461] | – | – | – | – | – | 0.05424 | −0.1288 | −0.01237 | −0.00757 | −0.03035 | TNBCType train [1, 12]: MSL
